# In the supplement of paper PMC10307832:
# Experiments:
# Assay in all cases: relative viability (nuclei count vs DMSO), 5 days (fraction); higher = more cells survive
# [1] = tested on: ABC-1
# Summary of the method: (§1)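 Each reported value is a median over duplicate plates. It expresses relative viability: treated-well nuclei count divided by vehicle-well nuclei count. Lung cancer cell lines in 1536-well plates were dosed by pin tool a day after seeding, alone with one drug or with a fixed anchor-drug dose plus five library-drug doses (not always all listed) in √10 steps, and nuclei were counted after 5 days.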
# [2] = tested on: CAL-12T
# Summary of the method: as §1
# [3] = tested on: COR-L23
# Summary of the method: as §1
# [4] = tested on: EKVX
# Summary of the method: as §1
# [5] = tested on: H3255
# Summary of the method: as §1
# [6] = tested on: HCC-15
# Summary of the method: as §1
# [7] = tested on: HCC-827
# Summary of the method: as §1
# [8] = tested on: LK-2
# Summary of the method: as §1
# [9] = tested on: NCI-H1355
# Summary of the method: as §1
# [10] = tested on: NCI-H1437
# Summary of the method: as §1
# [11] = tested on: NCI-H1563
# Summary of the method: as §1
# [12] = tested on: NCI-H1650
# Summary of the method: as §1
# [13] = tested on: NCI-H1734
# Summary of the method: as §1
# [14] = tested on: NCI-H2228
# Summary of the method: as §1
# [15] = tested on: NCI-H2342
# Summary of the method: as §1
# [16] = tested on: NCI-H2405
# Summary of the method: as §1
# [17] = tested on: NCI-H322M
# Summary of the method: as §1
# [18] = tested on: NCI-H520
# Summary of the method: as §1
# [19] = tested on: NCI-H661
# Summary of the method: as §1
# [20] = tested on: PC-14
# Summary of the method: as §1
# [21] = tested on: PC-3 [JPC-3]
# Summary of the method: as §1
# [22] = tested on: RERF-LC-KJ
# Summary of the method: as §1
# [23] = tested on: SW 1573
# Summary of the method: as §1
structure (smiles),measurement,setting,value
Oc1nc(-c2ccc(C(F)(F)F)cc2)nc2c1CSCC2 [XAV939] + CCNC(=O)c1noc(-c2cc(C(C)C)c(O)cc2O)c1-c1ccc(CN2CCOCC2)cc1 [Luminespib] (partner 0.01 µM),relative viability,[1]; first compound 0.08 µM,0.778
same,relative viability,[1]; first compound 0.253 µM,0.584
same,relative viability,[1]; first compound 0.8 µM,0.795
same,relative viability,[1]; first compound 2.53 µM,0.405
same,relative viability,[2]; first compound 0.08 µM,0.54
same,relative viability,[2]; first compound 0.253 µM,0.363
same,relative viability,[2]; first compound 0.8 µM,0.363
same,relative viability,[2]; first compound 2.53 µM,0.3
same,relative viability,[3]; first compound 0.08 µM,0.929
same,relative viability,[3]; first compound 0.253 µM,0.642
same,relative viability,[3]; first compound 0.8 µM,0.615
same,relative viability,[3]; first compound 2.53 µM,0.792
same,relative viability,[4]; first compound 0.08 µM,0.947
same,relative viability,[4]; first compound 0.253 µM,0.786
same,relative viability,[4]; first compound 0.8 µM,0.818
same,relative viability,[4]; first compound 2.53 µM,0.7
same,relative viability,[5]; first compound 0.08 µM,1.09
same,relative viability,[5]; first compound 0.253 µM,0.879
same,relative viability,[5]; first compound 0.8 µM,0.804
same,relative viability,[5]; first compound 2.53 µM,0.907
same,relative viability,[6]; first compound 0.08 µM,0.465
same,relative viability,[6]; first compound 0.253 µM,0.295
same,relative viability,[6]; first compound 0.8 µM,0.302
same,relative viability,[6]; first compound 2.53 µM,0.235
same,relative viability,[7]; first compound 0.08 µM,0.743
same,relative viability,[7]; first compound 0.253 µM,0.739
same,relative viability,[7]; first compound 0.8 µM,0.587
same,relative viability,[7]; first compound 2.53 µM,0.396
same,relative viability,[8]; first compound 0.08 µM,0.202
same,relative viability,[8]; first compound 0.253 µM,0.183
same,relative viability,[8]; first compound 0.8 µM,0.192
same,relative viability,[8]; first compound 2.53 µM,0.167
same,relative viability,[9]; first compound 0.08 µM,0.814
same,relative viability,[9]; first compound 0.253 µM,0.787
same,relative viability,[9]; first compound 0.8 µM,0.632
same,relative viability,[9]; first compound 2.53 µM,0.47
same,relative viability,[10]; first compound 0.08 µM,1.2
same,relative viability,[10]; first compound 0.253 µM,1.09
same,relative viability,[10]; first compound 0.8 µM,1.14
same,relative viability,[10]; first compound 2.53 µM,0.911
same,relative viability,[11]; first compound 0.08 µM,0.617
same,relative viability,[11]; first compound 0.253 µM,0.481
same,relative viability,[11]; first compound 0.8 µM,0.505
same,relative viability,[11]; first compound 2.53 µM,0.489
same,relative viability,[12]; first compound 0.08 µM,0.196
same,relative viability,[12]; first compound 0.253 µM,0.225
same,relative viability,[12]; first compound 0.8 µM,0.177
same,relative viability,[12]; first compound 2.53 µM,0.197
same,relative viability,[13]; first compound 0.08 µM,0.223
same,relative viability,[13]; first compound 0.253 µM,0.216
same,relative viability,[13]; first compound 0.8 µM,0.185
same,relative viability,[13]; first compound 2.53 µM,0.162
same,relative viability,[14]; first compound 0.08 µM,0.156
same,relative viability,[14]; first compound 0.253 µM,0.158
same,relative viability,[14]; first compound 0.8 µM,0.152
same,relative viability,[14]; first compound 2.53 µM,0.134
same,relative viability,[15]; first compound 0.08 µM,0.645
same,relative viability,[15]; first compound 0.253 µM,0.601
same,relative viability,[15]; first compound 0.8 µM,0.546
same,relative viability,[15]; first compound 2.53 µM,0.402
same,relative viability,[16]; first compound 0.08 µM,0.657
same,relative viability,[16]; first compound 0.253 µM,0.673
same,relative viability,[16]; first compound 0.8 µM,0.599
same,relative viability,[16]; first compound 2.53 µM,0.588
same,relative viability,[17]; first compound 0.08 µM,1.06
same,relative viability,[17]; first compound 0.253 µM,0.808
same,relative viability,[17]; first compound 0.8 µM,0.86
same,relative viability,[17]; first compound 2.53 µM,0.552
same,relative viability,[18]; first compound 0.08 µM,0.233
same,relative viability,[18]; first compound 0.253 µM,0.243
same,relative viability,[18]; first compound 0.8 µM,0.201
same,relative viability,[18]; first compound 2.53 µM,0.204
same,relative viability,[19]; first compound 0.08 µM,0.894
same,relative viability,[19]; first compound 0.253 µM,0.892
same,relative viability,[19]; first compound 0.8 µM,0.913
same,relative viability,[19]; first compound 2.53 µM,0.933
same,relative viability,[20]; first compound 0.08 µM,0.163
same,relative viability,[20]; first compound 0.253 µM,0.174
same,relative viability,[20]; first compound 0.8 µM,0.164
same,relative viability,[20]; first compound 2.53 µM,0.179
same,relative viability,[21]; first compound 0.08 µM,0.829
same,relative viability,[21]; first compound 0.253 µM,0.647
same,relative viability,[21]; first compound 0.8 µM,0.68
same,relative viability,[21]; first compound 2.53 µM,0.635
same,relative viability,[22]; first compound 0.08 µM,1.21
same,relative viability,[22]; first compound 0.253 µM,1.06
same,relative viability,[22]; first compound 0.8 µM,1.07
same,relative viability,[22]; first compound 2.53 µM,0.844
same,relative viability,[23]; first compound 0.08 µM,0.691
same,relative viability,[23]; first compound 0.253 µM,0.249
same,relative viability,[23]; first compound 0.8 µM,0.136
same,relative viability,[23]; first compound 2.53 µM,0.226
